From patent publication US7977474B2, “Uses of porphyrin compounds” (Destiny Pharma Ltd., priority 2004, dated 2011)
Like-named read-outs stand apart in the source and are kept apart here.

Legend:
[1] = system: normal human dermal fibroblasts (NHDF); experiment: Toxicity against human skin cells, MTT-assay (Example D); assay type: cell-based; conditions: 0.01-10 μM, 5 min, 1 h and 4 h incubation, then 24 h in the dark
Method: NHDF were incubated with different concentrations of Compound 10 for 5 min, 1 h and 4 h (0 μM, 0.01 μM, 0.1 μM, 1.0 μM, 10 μM). Cells were then incubated for 24 h in the dark. Toxicity was tested by standard MTT-assay. Cell viability was normalised to one, which means, the values of control cells were normalised to one. Grey dotted line: 5 min incubation; black dotted: 1 h incubation; black line: 4 h incubation; (n=3, mean±SD).
(§1) Test compounds were screened for toxicity against cultured human skin cells using normal human epidermal keratinoctes (NHEK) and normal human dermal fibroblasts (NHDF), purchased from CellSystems Biotechnologie GmbH, Germany.
(§2) The NHEK and NHDF cells were used between passages 3 and 10. The cells were seeded with 7.5 and/or 15×10^4 cells/well (microtitre plate) and were allowed to attach overnight in an incubator (37° C., 5% CO2). After incubation with different concentrations of the selected photosensitisers for various times, the cells were incubated for 24 hours in the dark.
(§3) Toxicity was tested by standard MTT-assay (Mossman et al., 1983 J. Immunological Methods 65: 55-63). MTT is an indicator of metabolically active cells. Dependent on enzyme activity in mitochondria a colour reaction can be visualised, which can be measured by ELISA reader (540 nm). […]

[2] = system: normal human epidermal keratinocytes (NHEK); experiment: as above; assay type: cell-based; conditions: 0.01-10 μM, 5 min, 1 h and 4 h incubation, then 24 h in the dark
Method: NHEK were incubated with different concentrations of Compound 10 for 5 min, 1 h and 4 h (0 μM, 0.01 μM, 0.1 μM, 1.0 μM, 10 μM). Cells were then incubated for 24 h in the dark. Toxicity was tested by standard MTT-assay. Cell viability was normalised to one, which means, the values of control cells were normalised to one. Red dotted line: 5 min incubation; black dotted: 1 h incubation; blue dotted: 4 h incubation only; (n=3, mean±SD).
as §1, §2, §3

[3] = system: Staphylococcus aureus BAA-44, a multi-drug resistant Methicillin Resistant Staphylococcus aureus (MRSA) strain; experiment: MIC and MBC of Compound 10 in the absence of light (Example B); assay type: cell-based
Excerpt: The minimum inhibitory concentration (MIC) for an antimicrobial agent against a specific microorganism is defined as the minimum concentration of an antibacterial agent where no apparent visible growth of the organism is observed (FDA definition of Minimum Inhibitory Concentration). MIC's are typically determined using concentrations derived traditionally from serial twofold dilutions (National Committee for Clinical Laboratory Standards (NCCLS) Handbook M7-A5: “Methods for Dilution Antimicrobial Susceptibility Tests for Bacteria that Grow Aerobically; Approved Standard—5th Edition” Volume 20 Number 2. January 2000). The MIC for Compound 10 in the absence of light was investigated, using a protocol based on the MIC protocol produced by the NCCLS (National Committee for Clinical Laboratory Standards (NCCLS) Handbook M7-A5, supra).
Staphylococcus aureus BAA-44, a multi-drug resistant Methicillin Resistant Staphylococcus aureus (MRSA) strain obtained from the ATCC catalogue, was used in this study. The following concentrations of Compound 10 were investigated: 0.764; 0.382: 0.191; 0.0955; 0.0478; 0.0239, 0.0119, 0.00597, 0.00298, 0.00149, 0.00075 & 0.00037 μg/mL. Stock solutions were made up in distilled water and serial dilutions undertaken of this to produce the required concentrations immediately prior to use.
At least 3 to 5 well-isolated colonies of the same morphological type were selected from an agar plate culture and the growth transferred to a tube containing 100 mL of Isosensitest Broth and the broth culture is incubated at 37° C. overnight. The culture was then be diluted to a final density of 10^4 cells/mL with fresh Isosensitest Broth and incubated with shaking at 37° C. until the cells entered exponential growth.
0.09 mL of the adjusted inoculum was transferred into each of 24 wells of a polystyrene 96 well microtiter plate. A control well of bacteria alone in the presence of growth medium alone was included (as a positive control).
0.09 mL of the Compound 10 stock solutions from the dilution series were pipetted into the relevant well for the microtiter plates and incubated in the dark at 37° C. and the plates examined after 24 hours incubation to determine the turbidity in each well.

[4] = Acute dermal toxicity test (OECD 402) (Example G); assay type: in vivo; conditions: 3.2 mM in a topical formulation
Method: Compound 10 was tested at 3.2 mM in a topical formulation in a standard acute dermal toxicity test to determine if any clinical or histological toxicity for the compound could be detected.
The acute toxicity protocol was based on OECD Guidelines for the testing of chemicals/Section 4—Health Effects Test Number 402: Acute Dermal Toxicity.

[5] = system: Staphylococcus epidermidis (methicillin resistant); experiment: MIC and MBC, reference strains and clinical isolates (Example C); assay type: cell-based; conditions: for MIC: Staphylococcus epidermidis, dark 24 hours
Method: (§4) The Minimum Inhibitory Concentrations (MIC's) for Compound 10, over a range of reference strains and clinical isolates, were determined using IsoSensitest® broth and Minimum Bactericidal concentrations (MBC's) determined by subculture onto Columbia blood agar.
(§5) • 1. A 5 mg/ml stock solution of Compound 10 was made up in water • 2. A series of dilutions were undertaken to produce a range of concentrations between 32-0.001 mg/L • 3. The test microorganisms were grown up overnight in IsoSensitest® broth • 4. The cultures were then diluted with fresh broth to a final concentration of 10^4 organisms/ml and placed on a shaker for 90 minutes at 37° C. • 5. 90 μl of the broth culture containing the microorganisms were transferred to each of 12 wells in a row in a microtitre tray and repeated in a control tray—four organisms per tray. • 6. 90 μL of the appropriate Compound 10 dilution was then added to each well containing organisms to give a final dilution series from 16 mg/L to 0.0005 mg/L • 7. The solutions were mixed well and incubated in the dark for 24 hours • 8. […] The MBC values were recorded after overnight incubation of the subcultures. • 10. Controls of uninoculated broth and broth plus inoculum were undertaken for each organism in each tray Results

Enterococcus faecium = experiment: as above; assay type: cell-based
Method: as §4, §5

[6] = system: Staphylococcus epidermidis (methicillin sensitive); experiment: as above; assay type: cell-based; conditions: 37453, clinical isolate
Method: as §4, §5

[7] = system: Staphylococcus aureus (methicillin sensitive); experiment: as above; assay type: cell-based
Method: as §4, §5

Enterococcus faecalis = experiment: as above; assay type: cell-based
Method: as §4, §5

[8] = system: Staphylococcus aureus (methicillin resistant); experiment: MIC (IsoSensitest broth) and MBC (subculture on blood agar), reference strains and clinical isolates (Example C); assay type: cell-based
Method: as §4, §5

Escherichia coli = conditions: visible light after incubation; Valduga et al., 1999; cited from earlier work

In the case of C[N+](C)(C)CCCOc1ccc(-c2c3nc(cc4ccc([nH]4)c(-c4ccc(OCCC[N+](C)(C)C)cc4)c4nc(cc5ccc2[nH]5)C=C4)C=C3)cc1 [Compound 10, 5,15-bis-[4-(3-Trimethylammonio-propyloxy)-phenyl]-porphyrin dichloride], the “innate toxicity (MTT cell viability)” value [1] is reported as “does not demonstrate an innate toxicity”, the “innate toxicity (MTT cell viability)” value [2] is reported as “does not demonstrate an innate toxicity” and the MIC ([3]; Series 2, dark) is reported as 0.0955 µg/mL. For the same compound, the MIC ([3]; Staphylococcus aureus, Series 1, dark, read-out: MIC) was 0.0955 µg/mL, the MBC ([3]; Staphylococcus aureus, absence of light) was 0.382 µg/mL and the MIC ([3]; Staphylococcus aureus, absence of light, 24 hours incubation at 37° C., read-out: MIC) was 0.0955 µg/mL. For the same compound, the “histological toxicology of major organs” value [4] was “No histological toxicology of any major organ (including the skin) was observed”, the acute toxic effect ([4]; dermal) was “does not result in any acute toxic effect” and the clinical toxicology ([4]; clinical, macroscopic and microscopic observation) was “no clinical toxicology was observed”. It also gave an MBC ([5]; Staphylococcus epidermidis, 33659, clinical isolate) of 1 µg/mL, an MBC ([5]; Staphylococcus epidermidis, 33759, clinical isolate) of 1 µg/mL and an MBC ([5]; Staphylococcus epidermidis, 36572, clinical isolate) of 0.25 µg/mL. The MBC ([5]; Staphylococcus epidermidis, 38808, clinical isolate) was 0.5 µg/mL, the MIC ([5]; 24 h, 33659, clinical isolate) was 0.5 µg/mL and the MIC ([5]; 24 h, 33759, clinical isolate) was 0.5 µg/mL. It also gave an MIC ([5]; 24 h, 36572, clinical isolate) of 0.25 µg/mL, an MIC ([5]; 24 h, 38808, clinical isolate) of 0.5 µg/mL and an MBC (Enterococcus faecium; E1, clinical isolate) of 1 µg/mL. The MIC (Enterococcus faecium; E1, clinical isolate, dark 24 hours) was 0.5 µg/mL, the MBC (Enterococcus faecium; E5, clinical isolate) was 1 µg/mL and the MBC (Enterococcus faecium; E19, clinical isolate) was 0.5 µg/mL. It also gave an MBC (Enterococcus faecium; E44, clinical isolate) of 0.5 µg/mL, an MBC (Enterococcus faecium; NCTC12204, NCTC 12204) of 1 µg/mL and an MBC [6] of 0.5 µg/mL. For the same compound, the MIC ([6]; dark 24 hours) was 0.5 µg/mL, the MBC ([7]; ATCC25923, ATCC 25923) was 1 µg/mL and the MIC ([7]; ATCC25923, ATCC 25923, dark 24 hours) was 0.5 µg/mL. It also gave an MBC ([7]; NCTC6571, NCTC 6571) of 0.5 µg/mL, an MIC ([7]; NCTC6571, NCTC 6571, dark 24 hours) of 0.5 µg/mL and an MBC (Enterococcus faecalis; ATCC29212, ATCC 29212) greater than 1 µg/mL. For the same compound, the MBC (Enterococcus faecalis; E3, clinical isolate) was 1 µg/mL, the MIC (Enterococcus faecalis; E3, clinical isolate, dark 24 hours) was 0.5 µg/mL and the MBC (Enterococcus faecalis; E4, clinical isolate) was 0.5 µg/mL. It also gave an MBC (Enterococcus faecalis; E10, clinical isolate) of 1 µg/mL, an MBC (Enterococcus faecalis; E37, clinical isolate) of 1 µg/mL and an MIC ([8]; 24 h, EMRSA-16, clinical isolate, dark 24 hours) of 0.5 µg/mL. It also gave an MIC ([8]; ATCCBAA44, 24 h, ATCC BAA-44 Experiment 1, dark 24 hours) of 0.5 µg/mL, an MIC ([8]; ATCCBAA44, 24 h, ATCC BAA-44 Experiment 2, dark 24 hours) of 0.5 µg/mL and an MIC ([8]; ATCCBAA44, 24 h, ATCC BAA-44 Experiment 3, dark 24 hours) of 2 µg/mL. The MIC ([8]; ATCCBAA44, 24 h, ATCC BAA-44 Experiment 4, dark 24 hours) was 0.5 µg/mL, the MIC ([8]; ATCCBAA44, 24 h, ATCC BAA-44 Experiment 5, dark 24 hours) was 0.5 µg/mL and the MIC ([8]; ATCCBAA44, 24 h, ATCC BAA-44 Experiment 6, dark 24 hours) was 0.5 µg/mL. The MBC ([8]; ATCCBAA44, ATCC BAA-44 Experiment 1) was 0.5 µg/mL, the MBC ([8]; ATCCBAA44, ATCC BAA-44 Experiment 2) was 1 µg/mL and the MBC ([8]; ATCCBAA44, ATCC BAA-44 Experiment 3) was 2 µg/mL. For the same compound, the MBC ([8]; ATCCBAA44, ATCC BAA-44 Experiment 4) was 1 µg/mL, the MBC ([8]; ATCCBAA44, ATCC BAA-44 Experiment 5) was greater than 1 µg/mL and the MBC ([8]; ATCCBAA44, ATCC BAA-44 Experiment 6) was 1 µg/mL. It also gave an MBC ([8]; EMRSA-15, clinical isolate) of 1 µg/mL, an MBC ([8]; EMRSA-16, clinical isolate) of 0.5 µg/mL and an MIC ([8]; NCTC11939, 24 h, NCTC 11939 (EMRSA-1), dark 24 hours) of 0.5 µg/mL. It also gave an MBC ([8]; NCTC11939, NCTC 11939 (EMRSA-1)) of 0.5 µg/mL.

In the case of C[n+]1ccc(-c2c3nc(c(-c4cc[n+](C)cc4)c4ccc([nH]4)c(-c4cc[n+](C)cc4)c4nc(c(-c5cc[n+](C)cc5)c5ccc2[nH]5)C=C4)C=C3)cc1 [Compound T4MPyP, 5,10,15,20-tetrakis-(4-N-methylpyridyl)-porphine], the “inactivation of Escherichia coli” value (Escherichia coli) is listed as “efficiently inactivated”.
